# According to patent US12083084B2, “Method for enhancing energy production and metabolism in cells” (REPLICON HEALTH OY, priority 2013, dated 2024):
# Several values for one entry are separate records, joined by “and”; a condition that tells them apart may be missing. Equal values may be shown once. Entries after “also recorded” stand apart in the source; their conditions may differ.
# Tests used:
# [1] = cited from earlier work
# [2] = Glucose tolerance test, plasma glucose and insulin; type: in vivo, human; conditions: 4.5 day experiment
# Method: In the 4.5 day experiment also standard, fasting glucose tolerance test was conducted for S1 and S9 starting after 2.5 hours of last administration of DGAcs. Blood glucose levels were measured at 0 h, 60 min and 120 minutes.
# [3] = tested on: rat cortical neurons; experiment: LDH viability/cytotoxicity of rat cortical neurons (calorie restriction, high doses); type: cell-based
# Method: Cell culture. Cortical neurons were dissected from P1 rats and cultured in 96-well plates up to 7 days in the medium containing: neurobasal medium, 1.5% B27 supplement, 1 mM L-glutamine, penicillin/streptomycin.
# Treatment of cells with DGAcs was done in two different ways. In all studies the total cultivation time was 7 days (7th day in vitro=7 DIV). In the first study a clear element of calorie restriction (CR) was built in to the standard model provided by the CRO. The other 24 hour pretreatment was without CR (more info in examples 2.1 and 2.2 below). Separately also exceptionally high doses of DGAcs were administered to neurons. […] (Effective dose was […]).
# Cell Viability/Cytotoxicity. Cell Viability was Detected by LDH Tests Like in Examples 1.1-1.2.
# Cell treatment: concentration of DGAcs (10, 50 and 100 μg/ml) was added into cell culture medium at 4 DIV. After 24 h (at 5 DIV) 25% of medium was changed to fresh containing 1.5× concentration of DGAcs. Same treatment (change 25% with 1.5× concentration) was repeated at 6 DIV. The cells were transferred into Mg^2+-free Locke's buffer containing the same concentrations of DGAcs immediately before imaging experiments (at 7 DIV). For controls the same amount of medium was changed without addition of DGAcs.
# Cell treatment according to the protocol renewed only 25% of the medium during 5 DIV and 6 DIV, meaning that neurons received only very small amounts of new nutrition, i.e. experienced calorie restrictions (CR). […] This same phenomenon of increased cell death in CR was already seen with human hepatocytes in previous examples. Likely explanation is the same: DGAcs administration increases metabolic activity in neurons and/or their (aerobic) ATP production and consumption, which leads to enhanced cell cycle control and programmed cell death (apoptosis) in nutritional scarcity. […] Viability loss compared to zero control was highest and statistically significant in 10 μg/ml group but also all other groups experienced loss of viability.
# [4] = 4.5 day acute test, wide blood panel (Example 2.3.1); type: in vivo, human; conditions: for increased level of blood triglycerides: 4.5 day test
# Method: In earlier in vivo experiments (Example 2.1 and 2.2) the last DGAcs was taken in previous night. In this Example the last dose was double in size (=some 10 mg/kg), and it was taken in the same morning as the collection of blood samples. Higher than “normal” therapeutic dose and short time to blood measurement was chosen in order to see a clearer dose response compared to zero control. On top of very wide blood panel, like in Examples 2.1 and 2.2, also gene expression analyses from peripheral leukocytes (Example 2.3.2 below), and concentration analyses from collected plasma samples (Example 2.3.3) was conducted. Also glucose tolerance test and related insulin measurements (Example 2.3.4 below) was conducted. By comparing results of subject 1 (S1) from Example 2.1 and in Example 2.3.1 (below), it is fairly straightforward to see that this “high dose and immediate response strategy” was efficient, and it produced even very important deviations in some parameters due to different administrations.
# In this Example the 4 day experiment in Example 2.1 was extended into 4.5 day experiment by additional DGAcs dose in the morning before blood measurement. Same wide fasting blood panel consisting of 25 different metrics and full blood count was measured for all participants (sample analytics by United Medix Laboratories, Finland).
# Two healthy volunteers (S1 and S9) and two (otherwise healthy) volunteers using statin medication (S10 and S11) were chosen for the experiment. The test set up was double blinded. S1 had participated in the earlier 4 day experiment (see Table 3 above and also to a 3 week pilot testing) and served as an important positive control on the efficacy of the DGAcs. Statin group on the other hand was chosen as some kind of a negative control because statins to some extend can possibly counter act the positive effects of the DGAcs and on the other hand also have similar health effects. Statins suppress mevalonate pathway by inhibiting HMG Coa reductase activity and also disturb balancing of cellular NADPH/NADP^+ levels (FIGS. 3b and 4). […] Statin treatment group was not expected to yield positive results but possibly vice versa. For S10 the statin dose was halved two weeks before the test from 20 mg to 10 mg (Simvastatin). For S11 statin treatment was kept at 20 mg per day (also Simvastatin).
# [5] = rats, given with ethanol; cited from earlier work
# [6] = 4.5 day, 5 mg/kg twice a day, last dose 10 mg/kg, 2.5 hours after last dose, healthy males S1 and S9, fasting blood, vs 0-control
smiles,measurement,setting,value
"O=C(O)[C@H](O)CO [DGA, D-glyceric acid]",solubility,[1],readily soluble in water and alcohol
"O.O.O=C([O-])[C@H](O)CO.O=C([O-])[C@H](O)CO.[Ca+2] [DGAcs, D-glyceric acid, calcium salt dehydrate]",drop of blood glucose at 120 min,"[2]; S1 (starting level 5.0 mmol/L), 75 g glucose",marginal
same,blood glucose lower at 120 min compared to the control,"[2]; S9 (fasting blood glucose 6.0 mmol/L), 75 g glucose",~0.6 mmol/L
same,blood insulin level at 60 minutes,"[2]; S9, 75 g glucose",higher insulin level
same,neuronal viability (LDH) under calorie restriction vs zero control,"[3]; 10, 50 and 100 μg/ml from 4 DIV, only 25% of medium renewed at 5 and 6 DIV, FIG. 13",dose dependent viability loss; also recorded: confirmed statistically significantly
same,toxicity to neurons,[3]; 40-200 times the effective treatment dose,No toxicity was observed
same,Effective dose,[3]; rat cortical neurons,10-50 μg/m
same,"HDL, 4.5 day change",[4]; [6],1% and −1%
same,"S-Afos, 4.5 day change",[4]; [6],8% and 12%
same,"S-Alb, 4.5 day change",[4]; [6],5% and 10%
same,"S-Amyl, 4.5 day change",[4]; [6],−5% and −3%
same,"S-Cal, 4.5 day change",[4]; [6],4% and 3%
same,"S-LDH, 4.5 day change",[4]; [6],−4% and −7%
same,"S-Mg, 4.5 day change",[4]; [6],5% and 0%
same,"S-Na, 4.5 day change",[4]; [6],1%
same,"S-Uraat, 4.5 day change",[4]; [6],4% and −1%
same,"fS-Gluk, 4.5 day change",[4]; [6],−2% and 4%
same,"fS-Krea, 4.5 day change",[4]; [6],3% and 9%
same,"fS-Transf, 4.5 day change",[4]; [6],5% and 8%
same,"fS-Trigly, 4.5 day change",[4]; [6],−3% and −5%
same,blood LDH declined,"[4]; S1, 4.5 day test",4%
same,blood urea decline,"[4]; S1, 4.5 day test",7%
same,creatine kinase (S-CK) declined,"[4]; S1, 4.5 day test",14%
same,AST/ALT (ratio) after treatment,"[4]; S1, 4.5 day test (zero control 1.32)",0.96
same,increased level of blood triglycerides,"[4]; S10, statin group (Simvastatin 10 mg)",+83.5%
same,increased level of blood triglycerides,"[4]; S11, statin group (Simvastatin 20 mg)",+25.6%
same,metabolism of alcohol,[5],expedited the metabolism of alcohol
